Among the test systems are A549; COLO 205; HL-60; IGROV-1; LOX IMVI; Malme-3M; OVCAR-3; SK-MEL-28; SNB-19; SW-620; TK-10; U-251; UACC-62; UO-31; HCT-15; K562; A498.
Common to all, as to assay: growth of human tumour cells (NCI), 48 h

Structures are written as SMILES.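 All cell lines were grown in 96-well plates and treated with compound for 48 hours. GI50 = concentration required for 50% inhibition of growth.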 Activity calls are given as the source filed them. No stated cut-off is given here; in the data, active = GI50 up to about 1.1 µM and inactive = higher. Where only a bound is given, the exact number is not on record here.

With `CCOc1ccc(NC(=O)CC2SC(N)=NC2=O)cc1` (centres undefined), the GI50 in the assay on A549, in the assay on COLO 205, in the assay on HL-60, with IGROV-1, with LOX IMVI and with Malme-3M was > 100 µM (inactive) each time. For the same compound, the GI50 in the assay with OVCAR-3, in the assay with SK-MEL-28, in the assay on SNB-19, in the assay on SW-620, with TK-10 and with U-251 was > 100 µM (inactive) in each case. In addition, the GI50 in the assay on UACC-62 and with UO-31 was > 100 µM (inactive) in each case.

On to `C[N+](C)(C)C.FC(F)(F)C1(C(F)(F)F)O[SiH-]2(OC(C(F)(F)F)(C(F)(F)F)c3ccccc32)c2ccccc21`, for which the GI50 with A549 was 10 µM (inactive); in the assay with COLO 205 it was 20 µM (inactive); in the assay with HCT-15 it was 10.4 µM; in the assay on K562 it was 5.87 µM (inactive); in the assay on Malme-3M, 19.5 µM (inactive); in the assay on OVCAR-3, 18.9 µM (inactive). Also, the GI50 with SK-MEL-28 is 26.2 µM (inactive); in the assay on SNB-19, 7.18 µM (inactive); in the assay on SW-620, 18 µM (inactive); with TK-10, 16.9 µM (inactive); in the assay with U-251 it was 5.4 µM (inactive); with UO-31, 14.6 µM (inactive).

Turning to `Clc1cc(Cl)c2c(Cl)cc(Cl)c3c2c1N=S=N3`, the GI50 is 6.68 µM (inactive) in the assay with A498; > 100 µM (inactive) in the assay on A549; > 100 µM (inactive) with COLO 205; 67.1 µM with HCT-15; 94.6 µM (inactive) in the assay on HL-60; > 100 µM (inactive) in the assay on IGROV-1. The GI50 in the assay on K562, with LOX IMVI, in the assay on Malme-3M, with OVCAR-3, with SK-MEL-28 and with SNB-19 was > 100 µM (inactive) each time. In addition, the GI50 was > 100 µM (inactive) with SW-620; > 100 µM (inactive) in the assay with TK-10; > 100 µM (inactive) in the assay on U-251; 62.5 µM (inactive) with UACC-62; > 100 µM (inactive) in the assay on UO-31.

On to `Cc1cc(C)c2c(c1)N[S@@](=O)S2`, for which the GI50 in the assay with A498 is > 100 µM (inactive); with A549 it was 27.9 µM (inactive); with COLO 205, 18.2 µM (inactive); in the assay on HCT-15 it was 16.5 µM; in the assay with HL-60 it was 26.4 µM (inactive); in the assay on IGROV-1, 19.4 µM (inactive). The GI50 with K562 is 26.4 µM (inactive); in the assay with LOX IMVI it was 15.3 µM (inactive); in the assay with Malme-3M, 25.2 µM (inactive); in the assay on OVCAR-3, 18.3 µM (inactive); in the assay on SK-MEL-28 it was 28 µM (inactive); with SNB-19, 30.8 µM (inactive). In addition, the GI50 was 3.74 µM (inactive) with SW-620; 30.4 µM (inactive) with TK-10; 16.8 µM (inactive) in the assay with U-251; 18.6 µM (inactive) in the assay on UACC-62; 23 µM (inactive) in the assay on UO-31.

Turning to `COC(=O)c1nc(N)nc(C(=O)OC)c1C(=O)c1ccccc1`, the GI50 with A498 is > 100 µM (inactive); in the assay with A549, > 100 µM (inactive); with HCT-15, above 100 µM; in the assay with HL-60, > 100 µM (inactive); in the assay on IGROV-1, > 100 µM (inactive); in the assay with K562 it was > 100 µM (inactive). The GI50 in the assay with LOX IMVI, in the assay with Malme-3M, in the assay on OVCAR-3, in the assay with SK-MEL-28, with SNB-19 and with SW-620 was > 100 µM (inactive) throughout. The GI50 with TK-10, with U-251, in the assay on UACC-62 and in the assay with UO-31 was > 100 µM (inactive) each time.

For the compound `CC(=O)OC12c3ccccc3C1CCCC21OCCCO1` (centres undefined), the GI50 is > 100 µM (inactive) in the assay with A498; > 100 µM (inactive) in the assay with A549; > 100 µM (inactive) with COLO 205; above 100 µM in the assay on HCT-15; > 100 µM (inactive) in the assay with IGROV-1; > 100 µM (inactive) with K562. Moreover, the GI50 with LOX IMVI, in the assay on Malme-3M, in the assay with OVCAR-3, with SK-MEL-28, in the assay with SNB-19 and with SW-620 was > 100 µM (inactive) throughout. Further, the GI50 in the assay on TK-10, in the assay on U-251, in the assay with UACC-62 and in the assay with UO-31 was > 100 µM (inactive) each time.

Consider `CC1=C2O[B-](c3ccccc3)(c3ccccc3)[O+]=C2C=CN1`, for which the GI50 in the assay with A549 was 58.3 µM (inactive); in the assay with COLO 205, 45.1 µM (inactive); in the assay with HCT-15, 32.3 µM; with HL-60, 27.4 µM (inactive); in the assay on IGROV-1 it was 61.7 µM (inactive); in the assay with K562, 40.4 µM (inactive). In addition, the GI50 in the assay on LOX IMVI is 52.4 µM (inactive); in the assay on Malme-3M, 34.6 µM (inactive); in the assay with OVCAR-3, 2 µM (inactive); in the assay with SK-MEL-28, 29.6 µM (inactive); in the assay with SNB-19, 37.3 µM (inactive); in the assay with SW-620, 44.9 µM (inactive). In addition, the GI50 in the assay on TK-10 is 22.6 µM (inactive); in the assay with U-251, 55.6 µM (inactive); in the assay with UACC-62, 21.2 µM (inactive); in the assay with UO-31, 4.46 µM (inactive).

In the case of `CC1=C(C)CC2(CCCCC2=O)[S+]([O-])C1` (centres undefined), the GI50 with A498 was > 100 µM (inactive); in the assay on A549, > 100 µM (inactive); with COLO 205, > 100 µM (inactive); with HCT-15, above 100 µM; in the assay with HL-60, > 100 µM (inactive); with IGROV-1, > 100 µM (inactive). In addition, the GI50 with K562, in the assay with LOX IMVI, in the assay on Malme-3M, in the assay on OVCAR-3, in the assay on SK-MEL-28 and in the assay on SNB-19 was > 100 µM (inactive) in each case. The GI50 in the assay on SW-620, in the assay with TK-10, with U-251, with UACC-62 and in the assay with UO-31 was > 100 µM (inactive) throughout.

As for `CN(Cc1ccccc1)C(=NC#N)N(C)Cc1ccccc1`, the GI50 was > 100 µM (inactive) with A549; > 100 µM (inactive) with COLO 205; above 100 µM in the assay on HCT-15; > 100 µM (inactive) in the assay on IGROV-1; > 100 µM (inactive) with LOX IMVI; > 100 µM (inactive) in the assay with OVCAR-3. Moreover, the GI50 in the assay on SK-MEL-28, with SNB-19, with SW-620, in the assay on TK-10, in the assay on U-251 and in the assay with UACC-62 was > 100 µM (inactive) each time. Further, the GI50 with UO-31 is > 100 µM (inactive).

As to `O=C1NC(=O)C2C(=O)NC(=O)C1C2(c1ccccc1)c1ccc(Cl)cc1` (centres undefined), the GI50 in the assay on A498 is > 100 µM (inactive); with A549, > 100 µM (inactive); in the assay on COLO 205, > 100 µM (inactive); in the assay with HCT-15 it was above 100 µM; in the assay with HL-60, > 100 µM (inactive); in the assay on IGROV-1 it was > 100 µM (inactive). Further, the GI50 in the assay with K562, with LOX IMVI, in the assay on Malme-3M, with OVCAR-3, with SK-MEL-28 and in the assay with SNB-19 was > 100 µM (inactive) throughout. Moreover, the GI50 with SW-620, with TK-10, in the assay on UACC-62 and in the assay on UO-31 was > 100 µM (inactive) throughout.

Take `CC1=NOC(=O)C1/N=N/c1ccc(Br)c(C)c1` (centres undefined): the GI50 in the assay with A498 is 21.4 µM (inactive); with A549, 20.3 µM (inactive); in the assay with COLO 205 it was 25 µM (inactive); in the assay on HCT-15, 19.3 µM; with HL-60, 8.39 µM (inactive); in the assay with IGROV-1, 19.2 µM (inactive). Further, the GI50 was 13 µM (inactive) with K562; 18.7 µM (inactive) in the assay on Malme-3M; 17.2 µM (inactive) with OVCAR-3; 26.6 µM (inactive) in the assay on SK-MEL-28; 31.2 µM (inactive) with SNB-19; 17.6 µM (inactive) in the assay with SW-620. The GI50 in the assay with TK-10 was 18.6 µM (inactive); in the assay with U-251 it was 18.5 µM (inactive); in the assay on UACC-62 it was 19.3 µM (inactive).

For the compound `NC12CC3CC(C1)CC(Cl)(C3)C2`, the GI50 in the assay on A498, in the assay with A549, in the assay on COLO 205, in the assay with HL-60, in the assay on IGROV-1 and with K562 was > 100 µM (inactive) each time. Moreover, the GI50 in the assay with LOX IMVI, in the assay with Malme-3M, in the assay with OVCAR-3, in the assay on SK-MEL-28, with SW-620 and in the assay on TK-10 was > 100 µM (inactive) in each case. Besides, the GI50 in the assay on U-251, in the assay on UACC-62 and in the assay with UO-31 was > 100 µM (inactive) each time.

For `C=C1C(=O)C23C(O)CC4C5(C)CCCC4(C(O)OC5)C2C(OC(C)=O)CC1C3O` (centres undefined), the GI50 in the assay on A549 was 20.8 µM (inactive); with COLO 205 it was 5.16 µM (inactive); in the assay with HCT-15 it was 11.7 µM; in the assay with IGROV-1, 19.4 µM (inactive); with K562, 2.58 µM (inactive); in the assay with LOX IMVI, 13.5 µM (inactive). For the same compound, the GI50 with Malme-3M is 14.3 µM (inactive); with OVCAR-3, 13.2 µM (inactive); with SK-MEL-28, 10.5 µM (inactive); with SNB-19 it was 14.7 µM (inactive); with SW-620 it was 2.91 µM (inactive); in the assay on TK-10 it was 10.9 µM (inactive). For the same compound, the figures for the GI50 in the assay on U-251, in the assay on UACC-62 and with UO-31 were 16.6 µM (inactive), 6.73 µM (inactive) and 34.5 µM (inactive), respectively.

These data come from ChEMBL document CHEMBL1201862, “PubChem BioAssay data set” (2004).
